According to patent US7238795B2, “Nucleic acid binding compounds containing pyrazolo[3,4-d]pyrimidine analogues of purin-2,6-diamine and their uses” (Roche Molecular Systems, Inc., priority 2000, dated 2007):
Values joined by “and” are separate entries in the source; they are usually repeats but may differ in a detail not shown here. Equal entries are not always repeated. Where two headings read alike, the source gives them in different places.

Columns and labels:
[1] = Half-life of the N-glycosylic bond in HCl, followed UV-spectrophotometrically and by HPLC; type: physicochemical; details: 25°; for half-life: read-out: Half-life τ
Method: Next, the half-lives of the N-glycosylic bonds of compounds 2a,b in acidic medium were measured and compared with that of compound 1. […]

[2] = target: T1, adenosine deaminase (ADA) (Homo sapiens, UniProt P00813); test: Deamination by adenosine deaminase, followed UV-spectrophotometrically; type: biochemical; details: compared with purine nucleoside 1; even at high enzyme concentrations
T1 sequence (P00813 1-363): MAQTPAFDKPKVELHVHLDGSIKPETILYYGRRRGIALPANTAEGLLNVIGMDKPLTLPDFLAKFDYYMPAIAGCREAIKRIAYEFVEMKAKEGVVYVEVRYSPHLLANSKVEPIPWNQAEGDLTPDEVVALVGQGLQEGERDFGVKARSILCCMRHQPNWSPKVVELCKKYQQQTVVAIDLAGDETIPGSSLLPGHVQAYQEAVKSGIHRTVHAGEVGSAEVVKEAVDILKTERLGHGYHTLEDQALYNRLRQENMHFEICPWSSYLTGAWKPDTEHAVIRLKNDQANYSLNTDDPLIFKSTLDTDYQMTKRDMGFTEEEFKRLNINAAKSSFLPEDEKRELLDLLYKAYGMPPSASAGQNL
Description: The reaction was followed UV-spectrophoto-metrically (FIG. 1a).
The time-dependent spectra show two isosbestic points (λ=234 nm and 267 nm) indicating the conversion of the starting material into only one reaction product. The deamination of 2a occurs much slower than that of the purine nucleoside 1.

[3] = test system: complementary oligodeoxyribonucleotide strand (antiparallel duplex); test: Tm values and thermodynamic data of antiparallel DNA-DNA duplexes (UV melting curves, Meltwin 3.0); type: binding
[4] = Deprotection (alkaline hydrolysis) of base-protected nucleosides in aqueous ammonia, HPLC monitoring; details: for time of complete deprotection: conc. ammonia, 40°
[5] = buffer
[6] = test system: complementary oligodeoxyribonucleotide strand (antiparallel duplex); details: data published so far; n^2Ad instead of dA; cited from earlier work
[7] = 25% aq. NH3, 40°, HPLC-monitoring

## Nc1nc(N)c2c(Br)nn([C@H]3C[C@H](O)[C@@H](CO)O3)c2n1 [2b, 3-Bromo-1-[2-deoxy-β-D-erythro-pentofuranosyl]-1H-pyrazolo[3,4-d]-pyrimidin-4,6-diamine]
[1]; 0.5 N HCl, Stable = within 4 h
  Half-life τ: Stable^b)
[1]; 2 N HCl
  half-life: 87 min
[2]
  deamination by adenosine deaminase: not deaminated
[3]; text Example 2, standard duplex 102•103
  Tm increase (stabilization) per modified residue: 4.5 ° and 4-5 °
[3]; text b259
  Tm-value of duplex 102•103 with six residues replacing dA: 75 °

## Nc1nc(N)c2c(I)nn([C@H]3C[C@H](O)[C@@H](CO)O3)c2n1 [2c, 1-(2-Deoxy-β-D-erythro-pentofuranosyl)-3-iodo-1H-pyrazolo[3,4-d]-pyrimidin-4,6-diamine]
[1]; Table 8, 0.5 N HCl, stable = within 3 h
  Half-life τ: stable^b)
[1]; Table 8, 2 N HCl
  half-life: 61 min

## O=C(COc1ccccc1)Nc1nc(NC(=O)COc2ccccc2)c2cnn([C@H]3C[C@H](O)[C@@H](CO)O3)c2n1 [5a, N^4,N^6-Bis(phenoxyacetyl)-1-[2-deoxy-β-D-erythro-pentofuranosyl]-1H-pyrazolo[3,4-d]-pyrimidin-4,6-diamine]
[4]; [7]
  removal of the first pac-group: ≤ 5 min
  removal of the second pac-group: 20 min
[4]; 25% aq. NH3 at r.t.
  complete deprotection: less than one hour

## O=C(Nc1nc(NC(=O)c2ccccc2)c2cnn([C@H]3C[C@H](O)[C@@H](CO)O3)c2n1)c1ccccc1 [5b, N^4,N^6-Bis(benzoyl)-1-[2-deoxy-β-D-erythro-pentofuranosyl]-1H-pyrazolo[3,4-d]-pyrimidin-4,6-diamine]
[4]; 25% aq. NH3, 40°, HPLC monitoring
  complete removal of the two benzoyl groups: 8 to 9 h

## CCCCN(C=Nc1nc(N=CN(CCCC)CCCC)c2cnn([C@H]3C[C@H](O)[C@@H](CO)O3)c2n1)CCCC [8a, N^4,N^6-Bis((di-n-butylamino)methylene)-1-[2-deoxy-β-D-erythro-pentofuranosyl]-1H-pyrazolo[3,4-d]-pyrimidin-4,6-diamine]
[4]; HPLC-monitoring at 260 nm
  time of complete deprotection: 440 min

## CCCCN(C=Nc1nc(N=CN(CCCC)CCCC)c2c(Br)nn([C@H]3C[C@H](O)[C@@H](CO)O3)c2n1)CCCC [8b, N^4,N^6-Bis((di-n-butylamino)methylene)-3-bromo-1-[2-deoxy-β-D-erythro-pentofuranosyl]-1H-pyrazolo[3,4-d]-pyrimidin-4,6-diamine]
[4]; HPLC-monitoring at 260 nm
  time of complete deprotection: 450 min

## CC(C)C(=O)Nc1nc(NC(=O)C(C)C)c2c(Br)nn([C@H]3C[C@H](O)[C@@H](CO)O3)c2n1 [13a, 3-Bromo-1-(2-deoxy-β-D-erythro-pentofuranosyl)-4,6-[(2-methylpropanoyl)amino]-1H-pyrazolo[3,4-d]pyrimidine]
[5]
  half-life of alkaline hydrolysis: 4.5 min

## O=C(Nc1nc(NC(=O)c2ccccc2)c2c(I)nn([C@H]3C[C@H](O)[C@@H](CO)O3)c2n1)c1ccccc1 [13b, 1-[2-Deoxy-β-D-erythro-pentofuranosyl]-4,6-dibenzamido-3-iodo-1H-pyrazolo[3,4-d]-pyrimidine]
[4]; 25% aq. NH3, 40° C., HPLC-monitoring at 260 nm
  time for complete deprotection: 450 min

## Nc1nc(N)c2ncn([C@H]3C[C@H](O)[C@@H](CO)O3)c2n1 [compound 1, 2-amino-2′-deoxyadenosine, reference compound]
[1]; 0.5 N HCl, Stable = within 4 h
  half-life: 6 min
[6]
  Tm-increase of DNA duplex: 1-2 °C

## CC(C)C(=O)Nc1nc(N)c2c(Br)nn([C@H]3C[C@H](O)[C@@H](CO)O3)c2n1 [compound 14, 4-Amino-3-bromo-1-(2-deoxy-β-D-erythro-pentofuranosyl)-6-[(2-methylpropanoyl)amino]-1H-pyrazolo[3,4-d]pyrimidine]
[4]; 25% aq. NH3 at 40°
  half-life of alkaline hydrolysis: 20.5 min
